In PubChem BioAssay (NCI):
Values joined by “and” are separate entries in the source; they are usually repeats but may differ in a detail not shown here. Identical values can stand only once.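 A five-concentration, 48-hour dose response in 96-well plates underlies each endpoint, interpolated linearly between surrounding concentrations. Here, GI50 denotes the concentration required for 50% inhibition of growth. TGI is the concentration that stops growth completely.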

System: NCI-H522 lung
Assay: NCI-60 cell line screen, 48 h

Structure (SMILES)	GI50 [µM]	TGI [µM]
COc1ccc(C(O)(CCC(C)C)C(CN2CCOCC2)c2ccc(Cl)cc2)cc1 (stereo unspecified)	6.7	21.6
Cn1c(=O)c(Oc2ccc(F)cc2)cc2cnc(NC3CCOCC3)nc21	> 25	> 25
CC1(C)N=C(N)N=C(N)N1c1ccc(CCCCc2ccc(Cl)c(S(=O)(=O)F)c2)c(Cl)c1	0.71	13.3
Cc1cc2cc3c(=O)[nH]c(=O)[nH]c3nc2cc1C	–	> 100
CCc1c(Cl)c(C)cc(O)c1Cl	–	> 100
CC(C)OC(=O)[C@H](C)NP(=O)(OC[C@H]1O[C@@H](n2ccc(=O)[nH]c2=O)[C@](C)(F)[C@@H]1O)Oc1ccccc1 (stereo partly specified)	> 100	> 100
BrCc1cccc(C[P+](c2ccccc2)(c2ccccc2)c2ccccc2)c1	6.88	> 100
C=COC(=O)N[C@H]1CCc2cc(OC)c(OC)c(OC)c2-c2ccc(SC)c(=O)cc21	–	< 0.01
Cc1ccc(NC(=O)CCc2nnc(N)o2)cc1	–	> 100
O=C(O)c1ccc(C(=O)O)c2c(C(=O)O)ccc(C(=O)O)c12	–	> 100
CSc1nc(NC2OC(COC(C)=O)C(OC(C)=O)C(OC(C)=O)C2OC(C)=O)c(N=CC=Nc2c(NC3OC(COC(C)=O)C(OC(C)=O)C(OC(C)=O)C3OC(C)=O)nc(SC)n(C)c2=O)c(=O)n1C (stereo unspecified)	> 50	> 100
O=S(=O)(Nc1ccc(Cl)cc1Cl)c1ccc(-c2cnc(C3CC3)o2)cc1	0.435	17.3
CCc1ccc(/C=C/c2ccc(O)c3ncccc23)[n+](C)c1	2.3	> 100
S=c1[nH]c2c(Cl)c(Cl)c(Cl)c(Cl)c2[nH]1	–	3.71
O=C(/C=C/C=C/c1ccccc1)c1ccccc1	–	20.2

System: OVCAR-3 ovarian
Assay: NCI-60 cell line screen, 48 h

Structure (SMILES)	GI50 [µM]	TGI [µM]
CCN(Cc1ccc(F)cc1)c1ccc(CO)c(Br)c1	0.238	0.868
Cc1ccc2c(C3C(C#N)=C(N)Oc4cc5ccccc5cc43)cc(=O)oc2c1 (stereo unspecified)	0.375	10.7
COC(=O)c1cc2c(s1)-c1nccc3c1c(nc1ccccc13)C2=O	16.5	56.2
COc1ccc(-c2cc(/C=C/C(=O)c3ccc(OC)c(OC)c3)[nH]n2)cc1	1.19	2.47
C[Si](C)(C)/C(I)=C/CO	–	73.1
C[N+](C)(C)CC1CCC/C1=N\OC(=O)c1ccccc1 (stereo unspecified)	–	> 100
Oc1ccc(Nc2c3ccccc3nc3occ(Cl)c23)cc1	3.12	8.76
O=C(Nc1cc(C(F)(F)F)ccc1Cl)c1cccc(NC2=C(Cl)C(=O)N(Cc3ccccc3)C2=O)c1	34.3	> 100
CCCCCCCN=C(N)c1ccc(N2CCN(c3ccc(C(N)=NCCCCCCC)cc3)CC2)cc1	0.162	0.517
Cc1ccc(S(=O)OCc2c(C)c(C)c(COS(=O)c3ccc(C)cc3)c(C)c2C)cc1 (stereo unspecified)	–	> 100
COc1ccc2c(c1)c[n+](C)c1c3cc(OC)c(OC)cc3ccc21	–	15
CN(C)C(=S)Sc1ccc([N+](=O)[O-])cc1[N+](=O)[O-]	0.99	2.49
C[C@H]1CN[C@@H]2[C@@H](C)[C@H]3[C@@H](C[C@H]4[C@@H]5CC[C@H]6C[C@@H](N)CC[C@]6(C)[C@H]5CC[C@]34C)O[C@@]2(O)C1	–	5.96
CSc1ccccc1C#C/C=C\C#Cc1ccccc1N	0.836	3.98
COc1ccc(C(O)(CCC(C)C)C(CN2CCOCC2)c2ccc(Cl)cc2)cc1 (stereo unspecified)	12.9	26.2
Cn1c(=O)c(Oc2ccc(F)cc2)cc2cnc(NC3CCOCC3)nc21	> 25	> 25
CC1(C)N=C(N)N=C(N)N1c1ccc(CCCCc2ccc(Cl)c(S(=O)(=O)F)c2)c(Cl)c1	2.22	15.1
Cc1cc2cc3c(=O)[nH]c(=O)[nH]c3nc2cc1C	–	> 100
CCc1c(Cl)c(C)cc(O)c1Cl	–	> 100
CC(C)OC(=O)[C@H](C)NP(=O)(OC[C@H]1O[C@@H](n2ccc(=O)[nH]c2=O)[C@](C)(F)[C@@H]1O)Oc1ccccc1 (stereo partly specified)	> 100	> 100
BrCc1cccc(C[P+](c2ccccc2)(c2ccccc2)c2ccccc2)c1	10.8	> 100
C=COC(=O)N[C@H]1CCc2cc(OC)c(OC)c(OC)c2-c2ccc(SC)c(=O)cc21	–	0.0311
Cc1ccc(NC(=O)CCc2nnc(N)o2)cc1	–	> 100
O=C(O)c1ccc(C(=O)O)c2c(C(=O)O)ccc(C(=O)O)c12	–	> 100
CSc1nc(NC2OC(COC(C)=O)C(OC(C)=O)C(OC(C)=O)C2OC(C)=O)c(N=CC=Nc2c(NC3OC(COC(C)=O)C(OC(C)=O)C(OC(C)=O)C3OC(C)=O)nc(SC)n(C)c2=O)c(=O)n1C (stereo unspecified)	> 50	> 50
O=S(=O)(Nc1ccc(Cl)cc1Cl)c1ccc(-c2cnc(C3CC3)o2)cc1	0.439	15
CCc1ccc(/C=C/c2ccc(O)c3ncccc23)[n+](C)c1	0.671	> 23.4
S=c1[nH]c2c(Cl)c(Cl)c(Cl)c(Cl)c2[nH]1	–	97.3
O=C(/C=C/C=C/c1ccccc1)c1ccccc1	–	34.3

System: UO-31 renal
Assay: NCI-60 cell line screen, 48 h

Structure (SMILES)	GI50	TGI
CCN(Cc1ccc(F)cc1)c1ccc(CO)c(Br)c1	2.89 µM	> 40.3 µM
Cc1ccc2c(C3C(C#N)=C(N)Oc4cc5ccccc5cc43)cc(=O)oc2c1 (stereo unspecified)	7.68 µM	> 100 µM
COC(=O)c1cc2c(s1)-c1nccc3c1c(nc1ccccc13)C2=O	> 100 µM	> 100 µM
COc1ccc(-c2cc(/C=C/C(=O)c3ccc(OC)c(OC)c3)[nH]n2)cc1	1.17 µM	2.44 µM
C[Si](C)(C)/C(I)=C/CO	–	71.5 µM
C[N+](C)(C)CC1CCC/C1=N\OC(=O)c1ccccc1 (stereo unspecified)	–	> 100 µM
Oc1ccc(Nc2c3ccccc3nc3occ(Cl)c23)cc1	5.61 µM	24.4 µM
O=C(Nc1cc(C(F)(F)F)ccc1Cl)c1cccc(NC2=C(Cl)C(=O)N(Cc3ccccc3)C2=O)c1	0.7 µM	58.2 µM
CCCCCCCN=C(N)c1ccc(N2CCN(c3ccc(C(N)=NCCCCCCC)cc3)CC2)cc1	0.781 µM	> 100 µM
Cc1ccc(S(=O)OCc2c(C)c(C)c(COS(=O)c3ccc(C)cc3)c(C)c2C)cc1 (stereo unspecified)	–	> 100 µM
COc1ccc2c(c1)c[n+](C)c1c3cc(OC)c(OC)cc3ccc21	2.22 µM and 9.28 µM	5.13 µM and 22.5 µM
CN(C)C(=S)Sc1ccc([N+](=O)[O-])cc1[N+](=O)[O-]	1.79 µM	6.29 µM
C[C@H]1CN[C@@H]2[C@@H](C)[C@H]3[C@@H](C[C@H]4[C@@H]5CC[C@H]6C[C@@H](N)CC[C@]6(C)[C@H]5CC[C@]34C)O[C@@]2(O)C1	–	5.79 µM
CSc1ccccc1C#C/C=C\C#Cc1ccccc1N	17 µM	> 100 µM
COc1ccc(C(O)(CCC(C)C)C(CN2CCOCC2)c2ccc(Cl)cc2)cc1 (stereo unspecified)	11.3 µM	25.9 µM
Cn1c(=O)c(Oc2ccc(F)cc2)cc2cnc(NC3CCOCC3)nc21	> 10.5 µM	> 18.6 µM
CC1(C)N=C(N)N=C(N)N1c1ccc(CCCCc2ccc(Cl)c(S(=O)(=O)F)c2)c(Cl)c1	8.2 µM	28.5 µM
Cc1cc2cc3c(=O)[nH]c(=O)[nH]c3nc2cc1C	–	> 100 µM
CCc1c(Cl)c(C)cc(O)c1Cl	–	56.8 µM
CC(C)OC(=O)[C@H](C)NP(=O)(OC[C@H]1O[C@@H](n2ccc(=O)[nH]c2=O)[C@](C)(F)[C@@H]1O)Oc1ccccc1 (stereo partly specified)	> 100 µM	> 100 µM
BrCc1cccc(C[P+](c2ccccc2)(c2ccccc2)c2ccccc2)c1	> 100 µM	> 100 µM
C=COC(=O)N[C@H]1CCc2cc(OC)c(OC)c(OC)c2-c2ccc(SC)c(=O)cc21	–	74.9 µM
Cc1ccc(NC(=O)CCc2nnc(N)o2)cc1	–	> 100 µM
O=C(O)c1ccc(C(=O)O)c2c(C(=O)O)ccc(C(=O)O)c12	–	> 100 µM
CSc1nc(NC2OC(COC(C)=O)C(OC(C)=O)C(OC(C)=O)C2OC(C)=O)c(N=CC=Nc2c(NC3OC(COC(C)=O)C(OC(C)=O)C(OC(C)=O)C3OC(C)=O)nc(SC)n(C)c2=O)c(=O)n1C (stereo unspecified)	> 50 µM	> 100 µM
O=S(=O)(Nc1ccc(Cl)cc1Cl)c1ccc(-c2cnc(C3CC3)o2)cc1	1.06 µM	37.1 µM
CCc1ccc(/C=C/c2ccc(O)c3ncccc23)[n+](C)c1	7.4 µM	> 100 µM
S=c1[nH]c2c(Cl)c(Cl)c(Cl)c(Cl)c2[nH]1	–	43.2 µM
O=C(/C=C/C=C/c1ccccc1)c1ccccc1	–	38.2 µM
